# Reference: patent publication US11098029B2, “5-alkyl pyrrolidine orexin receptor agonists” (Merck Sharp & Dohme Corp., priority 2019, dated 2021)
# Target: human OX2R (Homo sapiens (Human), UniProt O43614)
# Experiment: IPOne (IP-One, Cisbio) orexin receptor agonist assay in CHO cells expressing human OX2R
# Settings: hOX2R_IP, percentage of mean max effect of a reference compound at 1 uM (100% activity vs Orexin A); for Emax: CHO
# Experimental: Both the OX1R and/or OX2R G-coupled protein receptors (GPCRs) couple through the Gaq signaling pathway, which ultimately promotes calcium mobilization via inositol triphosphate (IP3) production.
# In a typical experiment, the OX1 and OX2 receptor agonist activity is determined in accordance with the following general experimental method. Chinese hamster ovary (CHO) cells expressing human OX1R and/or the human OX2R were grown in Iscove's modified DMEM containing glutaMAX®, 1% G418, 100 U/mL penicillin, 100 μg/mL streptomycin and 10% heat-inactivated qualified fetal bovine serum (FBS). […] During this incubation, IP-one detection reagents were prepared (38:1:1 lysis buffer:D2:AB-cryptate reagents).
# For each compound, data were fit to a four parameter logistic fit (ActivityBase software) and the EC50 was reported as the inflection point of the resulting curve.
# human OX2R, sequence (O43614 whole entry): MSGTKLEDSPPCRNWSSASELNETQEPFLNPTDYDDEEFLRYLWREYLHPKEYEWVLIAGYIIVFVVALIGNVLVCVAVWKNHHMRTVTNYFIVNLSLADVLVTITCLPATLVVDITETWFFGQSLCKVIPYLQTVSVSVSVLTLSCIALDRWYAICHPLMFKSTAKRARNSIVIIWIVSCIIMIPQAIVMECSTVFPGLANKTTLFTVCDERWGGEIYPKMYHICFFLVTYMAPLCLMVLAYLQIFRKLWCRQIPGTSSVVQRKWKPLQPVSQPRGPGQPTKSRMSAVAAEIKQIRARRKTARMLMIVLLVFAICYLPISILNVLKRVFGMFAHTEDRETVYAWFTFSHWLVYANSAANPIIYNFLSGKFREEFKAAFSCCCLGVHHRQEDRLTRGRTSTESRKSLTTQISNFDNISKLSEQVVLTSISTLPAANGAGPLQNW
Compound,Emax (%),Emax [%]
"COC(=O)N1[C@H](C)C[C@H](NS(=O)(=O)N(C)CCC#N)[C@@H]1CO[C@H]1CC[C@@H](c2cccc(F)c2)CC1 [Example 54, methyl (2R,3S,5R)-3-((N-(2-cyanoethyl)-N-methylsulfamoyl)amino)-2-((((1s,4S)-4-(3-fluorophenyl)cyclohex-yl)oxy)methyl)-5-methylpyrrolidine-1-carboxylate]",98,–
"COCCN(C)S(=O)(=O)N[C@H]1C[C@@H](C)N(C(=O)OC)[C@H]1CO[C@H]1CC[C@@H](c2cccc(F)c2)CC1 [Example 55, methyl (2R,3S,5R)-2-((((1s,4S)-4-(3-fluorophenyl)cyclohex-yl)oxy)methyl)-3-((N-(2-methoxyethyl)-N-methylsulfamoyl)amino)-5-methylpyrrolidine-1-carboxylate]",100,–
"COC(=O)N1[C@H](C)C[C@H](NS(=O)(=O)N(C)CCS(C)(=O)=O)[C@@H]1COC1CCC(c2cccc(F)c2)CC1 (stereo partly drawn) [Example 57, methyl (2R,3S,5R)-2-((((1s,4S)-4-(3-fluorophenyl)cyclohex-yl)oxy)methyl)-5-methyl-3-((N-methyl-N-(2-(methyslulfonyl)-ethyl)sulfamoyl)amino) pyrrolidine-1-carboxylate]",100,–
"COC(=O)N1[C@H](C)C[C@H](NS(=O)(=O)N(C)CCOC(F)(F)F)[C@@H]1CO[C@H]1CC[C@@H](c2cccc(F)c2)CC1 [Example 59, methyl (2R,3S,5R)-2-((((1s,4S)-4-(3-fluorophenyl)cyclohex-yl)oxy)methyl)-5-methyl-3-((N-methyl-N-(2-(trifluoromethoxy)ethyl)sulfamoyl)amino)pyrro-lidine-1-carboxylate]",99,–
"COC(=O)N1[C@H](C)C[C@H](NS(=O)(=O)CC(F)F)[C@@H]1CO[C@H]1CC[C@@H](c2cccc(F)c2)CC1 [Example 60, Methyl (2R,3S,5R)-3-((2,2-difluoroethyl)sulfonamido)-2-((((1s,4S)-4-(3-fluorophenyl)-cyclohexyl)oxy)methyl)-5-methylpyrrolidine-1-carboxylate]",99,–
"COC(=O)N1[C@H](C)C[C@H](NS(=O)(=O)N(C)C)[C@@H]1CO[C@H]1CC[C@H](c2ccc(C#N)c(C)c2)CC1 [Example 64, Methyl (2R,3S,5R)-2-((((1r,4R)-4-(4-cyano-3-methylphenyl)cyclohexyl)oxy)methyl)-3-((N,N-dimethylsulfamoyl)amino)-5-methylpyrrolidine-1-carboxylate]",99,–
"CCc1ccccc1[C@H]1CC[C@H](OC[C@H]2[C@@H](NS(=O)(=O)N(C)C)C[C@@H](C)N2C(=O)OC)CC1 [Example 66, methyl (2R,3S,5R)-3-((N,N-dimethylsulfamoyl)amino)-2-((((1r,4R)-4-(2-ethylphenyl)cyclohexyl)oxy)methyl)-5-methylpyrrolidine-1-carboxylate]",–,100
"COC(=O)N1[C@H](C)C[C@H](NS(C)(=O)=O)[C@@H]1CO[C@H]1CC[C@@H](c2ncccn2)CC1 [Example 70, Methyl (2R,3S,5R)-5-methyl-3-(methylsulfonamido)-2-((((1s,4S)-4-(pyrimidin-2-yl)cyclohexyl)oxy)methyl)pyrrolidine-1-carboxylate]",99,–
methyl (CIS)-5-ethynyl-3-(methylsulfonamido)-2-((((CIS)-4-phenylcyclohexyl)oxy)methyl)-pyrrolidine-1-carboxylate [Example 47],101,–

# Other lines, results leading:
Emax (%),Emax [%],Compound
101,–,"COC(=O)N1[C@H](C)C[C@H](NS(=O)(=O)N(C)CCO)[C@@H]1CO[C@H]1CC[C@@H](c2cccc(F)c2)CC1 [Example 56, methyl (2R,3S,5R)-2-((((1s,4S)-4-(3-fluorophenyl)cyclohex-yl)oxy)methyl)-3-((N-(2-hydroxyethyl)-N-methylsulfamoyl)amino)-5-methylpyrrolidine-1-carboxylate]"
101,–,"COC(=O)N1[C@H](C)C[C@H](NS(=O)(=O)N(C)CC2CS(=O)(=O)C2)[C@@H]1CO[C@H]1CC[C@@H](c2cccc(F)c2)CC1 [Example 58, methyl (2R,3S,5R)-3-((N-((1,1-dioxidothietan-3-yl)methyl)-N-methylsulfamoyl)amino)-2-((((1s,4S)-4-(3-fluorophenyl)cyclohex-yl)oxy)methyl)-5-methylpyrrolidine-1-carboxylate]"
–,105,COCCS(=O)(=O)N[C@H]1C[C@@H](C)N(C(=O)OC)[C@H]1COC1CCC(c2cccc(F)c2)CC1 (stereo partly shown) [Example 61]
–,98,"COC(=O)N1[C@H](C)C[C@H](NS(=O)(=O)CF)[C@@H]1COC1CCC(c2cccc(F)c2)CC1 (stereo partly drawn) [Example 62, methyl (2R,3S,5R)-3-((fluoromethyl)sulfona-mido)-2-((((1s,4S)-4-(3-fluorophenyl)cyclohex-yl)oxy)methyl)-5-methylpyrrolidine-1-carboxylate]"
100,–,"COC(=O)N1[C@H](C)C[C@H](NS(=O)(=O)N(C)C)[C@@H]1CO[C@H]1CC[C@@H](c2ccc(C#N)c(C)c2)CC1 [Example 63, Methyl (2R,3S,5R)-2-((((1s,4S)-4-(4-cyano-3-methylphenyl)cyclohexyl)oxy)methyl)-3-((N,N-dimethylsulfamoyl)amino)-5-methylpyrrolidine-1-carboxylate]"
–,101,"CCc1ccccc1[C@H]1CC[C@@H](OC[C@H]2[C@@H](NS(=O)(=O)N(C)C)C[C@@H](C)N2C(=O)OC)CC1 [Example 65, Methyl (2R,3S,5R)-3-((N,N-dimethylsulfamoyl)amino)-2-((((1s,4S)-4-(2-ethylphenyl)cyclohexyl)oxy)methyl)-5-methylpyrrolidine-1-carboxylate]"
98,–,"COC(=O)N1[C@H](C)C[C@H](NS(C)(=O)=O)[C@@H]1CO[C@H]1CC[C@H](c2ncccn2)CC1 [Example 69, Methyl (2R,3S,5R)-5-methyl-3-(methylsulfonamido)-2-((((1r,4R)-4-(pyrimidin-2-yl)cyclohexyl)oxy)methyl)pyrrolidine-1-carboxylate]"
102,–,"COC(=O)N1[C@H](C)C[C@H](NS(C)(=O)=O)[C@@H]1CO[C@H]1CC[C@@H](c2cc(F)cc(F)c2)CC1 [Example 71, Methyl (2R,3S,5R)-2-((((1s,4S)-4-(3,5-difluorophenyl)cyclohexyl)oxy)methyl)-5-methyl-3-(methylsulfonamido)pyrrolidine-1-carboxylate]"
100,–,"COC(=O)N1[C@H](C)C[C@H](NS(C)(=O)=O)[C@@H]1CO[C@H]1CC[C@H](c2cc(F)cc(F)c2)CC1 [Example 72, Methyl (2R,3S,5R)-2-((((1r,4R)-4-(3,5-difluorophenyl)cyclohexyl)oxy)methyl)-5-methyl-3-(methylsulfonamido)pyrrolidine-1-carboxylate]"
–,101,"COC(=O)N1[C@H](C)C[C@H](NS(C)(=O)=O)[C@@H]1CO[C@H]1CC[C@@H](c2ccc(F)c(F)c2)CC1 [Example 73, Methyl (2R,3S,5R)-2-((((1s,4S)-4-(3,4-difluorophenyl)cyclohexyl)oxy)methyl)-5-methyl-3-(methylsulfonamido)pyrrolidine-1-carboxylate]"
